Assay results reported in PubChem BioAssay (NCI).
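Where inhibition never reached the appropriate level, the endpoint shown equals the highest concentration tested. Otherwise, values were interpolated linearly from a five-concentration, 48-hour dose response in 96-well plates. TGI is the concentration that stops growth completely.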

How the values were obtained:
Assay in all cases: growth of human tumour cells (NCI), 48 h
HT29 colon = test system: HT29 colon
PC-3 prostate = test system: PC-3 prostate
SNB-19 CNS = test system: SNB-19 CNS
UACC-62 melanoma = test system: UACC-62 melanoma
NCI/ADR-RES ovarian = test system: NCI/ADR-RES ovarian
U251 CNS = test system: U251 CNS
A549 NSCLC = test system: A549 NSCLC
RPMI-8226 leukemia = test system: RPMI-8226 leukemia
KM12 colon = test system: KM12 colon
EKVX NSCLC = test system: EKVX NSCLC
OVCAR-3 ovarian = test system: OVCAR-3 ovarian
M14 melanoma = test system: M14 melanoma
HOP-62 NSCLC = test system: HOP-62 NSCLC
SK-OV-3 ovarian = test system: SK-OV-3 ovarian
COLO 205 colon = test system: COLO 205 colon
LOX IMVI melanoma = test system: LOX IMVI melanoma
SF-268 CNS = test system: SF-268 CNS
ACHN renal = test system: ACHN renal
A498 renal = test system: A498 renal
MALME-3M melanoma = test system: MALME-3M melanoma
MDA-N = test system: MDA-N
HCT-15 colon = test system: HCT-15 colon
HL-60(TB) leukemia = test system: HL-60(TB) leukemia
SN12C renal = test system: SN12C renal
SK-MEL-5 melanoma = test system: SK-MEL-5 melanoma
OVCAR-5 ovarian = test system: OVCAR-5 ovarian
HCT-116 colon = test system: HCT-116 colon
SR leukemia = test system: SR leukemia
DU-145 prostate = test system: DU-145 prostate
RXF 393 renal = test system: RXF 393 renal
UO-31 renal = test system: UO-31 renal
NCI-H226 lung = test system: NCI-H226 lung
SF-295 CNS = test system: SF-295 CNS
NCI-H460 lung = test system: NCI-H460 lung
SK-MEL-28 melanoma = test system: SK-MEL-28 melanoma
MCF7 breast = test system: MCF7 breast
OVCAR-8 ovarian = test system: OVCAR-8 ovarian
K-562 leukemia = test system: K-562 leukemia
MOLT-4 leukemia = test system: MOLT-4 leukemia
MDA-MB-435 = test system: MDA-MB-435
HS 578T breast = test system: HS 578T breast
HCC-2998 colon = test system: HCC-2998 colon
UACC-257 melanoma = test system: UACC-257 melanoma
T-47D breast = test system: T-47D breast
786-0 renal = test system: 786-0 renal
SNB-75 CNS = test system: SNB-75 CNS
NCI-H23 lung = test system: NCI-H23 lung
OVCAR-4 ovarian = test system: OVCAR-4 ovarian
SF-539 CNS = test system: SF-539 CNS
SW-620 colon = test system: SW-620 colon
CAKI-1 renal = test system: CAKI-1 renal
HOP-92 NSCLC = test system: HOP-92 NSCLC
CCRF-CEM leukemia = test system: CCRF-CEM leukemia
NCI-H522 lung = test system: NCI-H522 lung
TK-10 renal = test system: TK-10 renal
SK-MEL-2 melanoma = test system: SK-MEL-2 melanoma
BT-549 breast = test system: BT-549 breast
IGROV1 ovarian = test system: IGROV1 ovarian
MDA-MB-231 breast = test system: MDA-MB-231 breast

CC(=O)CC1(O)C(=O)c2c(Br)sc(Br)c2C1=O
TGI (HT29 colon): 53.8 µM | TGI (PC-3 prostate): 45.4 µM | TGI (SNB-19 CNS): > 100 µM | TGI (UACC-62 melanoma): 46 µM | TGI (NCI/ADR-RES ovarian): > 100 µM | TGI (U251 CNS): 53.5 µM | TGI (A549 NSCLC): > 100 µM | TGI (RPMI-8226 leukemia): > 100 µM | TGI (KM12 colon): > 100 µM | TGI (EKVX NSCLC): 55.8 µM | TGI (OVCAR-3 ovarian): 31.7 µM | TGI (M14 melanoma): 33.1 µM | TGI (HOP-62 NSCLC): 79.4 µM | TGI (SK-OV-3 ovarian): > 100 µM | TGI (COLO 205 colon): 36.9 µM | TGI (LOX IMVI melanoma): 35 µM | TGI (SF-268 CNS): 82.4 µM | TGI (ACHN renal): > 100 µM | TGI (A498 renal): > 100 µM | TGI (MALME-3M melanoma): 33.2 µM | TGI (MDA-N): 45.9 µM | TGI (HCT-15 colon): 45.7 µM | TGI (HL-60(TB) leukemia): 50.5 µM | TGI (SN12C renal): 35.4 µM | TGI (SK-MEL-5 melanoma): 34.2 µM | TGI (OVCAR-5 ovarian): 33.9 µM | TGI (HCT-116 colon): 35.8 µM | TGI (SR leukemia): 49.9 µM | TGI (DU-145 prostate): > 100 µM | TGI (RXF 393 renal): 51.7 µM | TGI (UO-31 renal): 50.7 µM | TGI (NCI-H226 lung): > 100 µM | TGI (SF-295 CNS): > 100 µM | TGI (NCI-H460 lung): > 100 µM | TGI (SK-MEL-28 melanoma): 46 µM | TGI (MCF7 breast): > 100 µM | TGI (OVCAR-8 ovarian): 48 µM | TGI (K-562 leukemia): 91 µM | TGI (MOLT-4 leukemia): > 100 µM | TGI (MDA-MB-435): 43.6 µM | TGI (HS 578T breast): 95 µM | TGI (HCC-2998 colon): 32.7 µM | TGI (UACC-257 melanoma): 41.4 µM | TGI (T-47D breast): 83.9 µM | TGI (786-0 renal): 57.6 µM | TGI (SNB-75 CNS): > 100 µM | TGI (NCI-H23 lung): 39.2 µM | TGI (OVCAR-4 ovarian): 36.4 µM | TGI (SF-539 CNS): 49.3 µM | TGI (SW-620 colon): 55.6 µM | TGI (CAKI-1 renal): 32.1 µM | TGI (HOP-92 NSCLC): 34.7 µM | TGI (CCRF-CEM leukemia): 43 µM | TGI (NCI-H522 lung): 36.4 µM | TGI (TK-10 renal): 56.8 µM | TGI (SK-MEL-2 melanoma): 46.7 µM | TGI (BT-549 breast): 35.8 µM | TGI (IGROV1 ovarian): 35.9 µM

COc1cc2c(c(OC)c1)C(C)=NC(C)C2 (stereo not given)
TGI (HT29 colon): > 100 µM | TGI (PC-3 prostate): > 100 µM | TGI (SNB-19 CNS): > 100 µM | TGI (UACC-62 melanoma): > 100 µM | TGI (A549 NSCLC): > 100 µM | TGI (RPMI-8226 leukemia): > 100 µM | TGI (KM12 colon): > 100 µM | TGI (EKVX NSCLC): > 100 µM | TGI (M14 melanoma): > 100 µM | TGI (HOP-62 NSCLC): > 100 µM | TGI (SK-OV-3 ovarian): > 100 µM | TGI (COLO 205 colon): > 100 µM | TGI (LOX IMVI melanoma): > 100 µM | TGI (SF-268 CNS): > 100 µM | TGI (ACHN renal): > 100 µM | TGI (A498 renal): > 100 µM | TGI (MALME-3M melanoma): > 100 µM | TGI (MDA-N): > 100 µM | TGI (HCT-15 colon): > 100 µM | TGI (HL-60(TB) leukemia): > 100 µM | TGI (SN12C renal): > 100 µM | TGI (SK-MEL-5 melanoma): > 100 µM | TGI (HCT-116 colon): > 100 µM | TGI (SR leukemia): > 100 µM | TGI (DU-145 prostate): > 100 µM | TGI (UO-31 renal): > 100 µM | TGI (NCI-H226 lung): > 100 µM | TGI (SF-295 CNS): > 100 µM | TGI (NCI-H460 lung): > 100 µM | TGI (SK-MEL-28 melanoma): > 100 µM | TGI (MCF7 breast): > 100 µM | TGI (OVCAR-8 ovarian): > 100 µM | TGI (K-562 leukemia): > 100 µM | TGI (MOLT-4 leukemia): > 100 µM | TGI (MDA-MB-435): > 100 µM | TGI (HS 578T breast): > 100 µM | TGI (HCC-2998 colon): > 100 µM | TGI (UACC-257 melanoma): > 100 µM | TGI (T-47D breast): > 100 µM | TGI (786-0 renal): > 100 µM | TGI (NCI-H23 lung): > 100 µM | TGI (SF-539 CNS): > 100 µM | TGI (SW-620 colon): > 100 µM | TGI (CAKI-1 renal): > 100 µM | TGI (CCRF-CEM leukemia): > 100 µM | TGI (MDA-MB-231 breast): > 100 µM | TGI (NCI-H522 lung): > 100 µM | TGI (TK-10 renal): > 100 µM | TGI (BT-549 breast): > 100 µM | TGI (IGROV1 ovarian): > 100 µM

O=C(Nc1ccc(Cl)cc1)Oc1ccc(C(=S)Nc2ccc(Br)cc2)cc1
TGI (HT29 colon): 18.1 µM | TGI (PC-3 prostate): > 100 µM | TGI (SNB-19 CNS): > 100 µM | TGI (UACC-62 melanoma): 12.2 µM | TGI (NCI/ADR-RES ovarian): 61.4 µM | TGI (U251 CNS): 75.5 µM | TGI (A549 NSCLC): > 100 µM | TGI (RPMI-8226 leukemia): > 100 µM | TGI (KM12 colon): 25.5 µM | TGI (EKVX NSCLC): 19.6 µM | TGI (OVCAR-3 ovarian): 54.5 µM | TGI (M14 melanoma): 36 µM | TGI (HOP-62 NSCLC): > 100 µM | TGI (SK-OV-3 ovarian): > 100 µM | TGI (COLO 205 colon): 23.6 µM | TGI (LOX IMVI melanoma): 9.32 µM | TGI (SF-268 CNS): > 100 µM | TGI (ACHN renal): > 100 µM | TGI (A498 renal): 54.9 µM | TGI (MALME-3M melanoma): 89.2 µM | TGI (MDA-N): 67.2 µM | TGI (HCT-15 colon): 35.7 µM | TGI (HL-60(TB) leukemia): 18.1 µM | TGI (SK-MEL-5 melanoma): 23 µM | TGI (OVCAR-5 ovarian): 38.4 µM | TGI (HCT-116 colon): 54.4 µM | TGI (SR leukemia): 36.7 µM | TGI (DU-145 prostate): > 100 µM | TGI (UO-31 renal): > 100 µM | TGI (SF-295 CNS): > 100 µM | TGI (NCI-H460 lung): > 100 µM | TGI (SK-MEL-28 melanoma): 48.4 µM | TGI (MCF7 breast): 70.2 µM | TGI (OVCAR-8 ovarian): 22.7 µM | TGI (K-562 leukemia): 57.2 µM | TGI (MOLT-4 leukemia): 46.2 µM | TGI (MDA-MB-435): 38.6 µM | TGI (HS 578T breast): > 100 µM | TGI (HCC-2998 colon): 33.6 µM | TGI (UACC-257 melanoma): > 100 µM | TGI (T-47D breast): 88.9 µM | TGI (786-0 renal): 48.6 µM | TGI (NCI-H23 lung): 63.9 µM | TGI (OVCAR-4 ovarian): 75.8 µM | TGI (SF-539 CNS): 39.7 µM | TGI (SW-620 colon): > 100 µM | TGI (CAKI-1 renal): 35.8 µM | TGI (CCRF-CEM leukemia): 20.9 µM | TGI (NCI-H522 lung): 37.2 µM | TGI (SK-MEL-2 melanoma): 27.7 µM | TGI (BT-549 breast): 54.1 µM | TGI (IGROV1 ovarian): 25 µM
